Experimental data as given in patent US8853156B2, “Treatment for diabetes in patients inappropriate for metformin therapy” (Boehringer Ingelheim International GmbH, priority 2008, dated 2014).

Assays:
[1] = male, human, in vivo, po
[2] = Pharmacokinetics of multiple oral doses once daily for 12 days in patients with type 2 diabetes

For `CC#CCn1c(N2CCC[C@@H](N)C2)nc2c1c(=O)n(Cc1nc(C)c3ccccc3n1)c(=O)n2C` [BI 1356], the “excreted unchanged in urine and feces” value [1] was 90 % of excreted radioactivity, the “parent compound share of sample radioactivity in plasma” value [1] was 74 % of sample radioactivity and the “excretion route and form” value ([2]; human, in vivo) was “primarily excreted unchanged via the bile”. The main excretion organ ([2]; therapeutic oral dose levels) was “mainly excreted via the liver”.
